{
  "source": "patent US7521057B2",
  "about": "“Lamprey GnRH-III polypeptides and methods of making thereof” (University of New Hampshire, priority 2002, dated 2009)",
  "key": {"[1]": {"assay": "Plasma GnRHa after injection of sustained-release microspheres or implants in lampreys", "format": "in vivo, sea lamprey", "description": "Thus, experiments were conducted to determine the optimal injection site and delivery agent that would best ensure a slow, constant release of the active compound, in this case, D-Ala^6 Pro^9Net mammal GnRH (GnRHa) over a period of four weeks. In the plasma, GnRH is easily degraded by protolytic enzymes. Therefore a simple injection will not elevate plasma GnRH levels for the duration of time required to ensure the appropriate reproductive effect. If a GnRH analog were used to sterilize wild fish, the method would have to maintain high levels of GnRH in the plasma for the length of the spawning season, or about 6 weeks in the case of sea lamprey in the Great Lakes. It was believed that controlled release of GnRH could be attained by injection of biodegradable microspheres or implants containing a GnRH analog, and experiments were performed to determine if high enough GnRH levels could be maintained for the required duration using such a method.\nIn Applicant's experiments microspheres (in a dose of 75 ug GnRHa/lamprey) and 2 mm implants were injected either intramuscularly (IM) or intraperitoneally (IP). At week 1, plasma GnRHa was detected in two-thirds of the lampreys injected IP, either with microspheres (5.0+/−1.3 ng/ml) or implants (1.6+/−0.3 ng/ml).\nOnly the lampreys injected IM with microspheres still had detectable levels of GnRHa after 3 weeks (2.9+/−1.5 ng/ml). Based on the results of these experiments, the best method of sustained release of GnRHa was determined to be via IM injection using microspheres."}, "[2]": {"target": "type-II GnRH binding site", "assay": "Competition binding in pituitary of male sea lampreys, type-II GnRH binding site", "design": "species or system P. marinus", "details": "for Ki: pituitary of adult male land-locked P. marinus, tracer iodinated [DAla6, Pro9Net]-mammalian GnRH, K1 from IC50", "description": "(§1) In another study, the binding affinity in the pituitary of male sea lampreys was determined with lamprey GnRH-I and -III analogs in an effort to better understand the structure-activity relations of the lamprey GnRH molecule (Mateme and Sower, unpublished). Competition studies were performed using the iodinated DAla^6, Pro^9Net]-mammalian GnRH as the tracer with each of the following analogs: [D-Phe^2, Gly^6]-lGnRH-I (Peninsula Labs, Cali.); and the following lGnRH-III analogs: [D-Phe^2,6, Pro^3], [D-Phe^2, Gly^6], and [Ac-Delta-3Pro, 4FDPhe^2-D-Trp^3,6] from American Peptide, Cali. […] The level of significance was P<0.0001 See TABLE 5 for the results of these experiments. The results shown in Table 5 summarize experiments using various analogs.\n(§2) Inhibition constants (K1) of lamprey GnRH-putative antagonists in the pituitary of adult male land-locked P. marinus. […] The data were plotted on a logit-log plot and the K1 determined from the IC50 using the Prism software."}, "type-I GnRH-binding site": {"target": "type-I GnRH-binding site", "assay": "Competition binding in pituitary of male sea lampreys, type-I GnRH binding site", "design": "species or system P. marinus", "details": "for Ki: pituitary of adult male land-locked P. marinus, tracer iodinated [DAla6, Pro9Net]-mammalian GnRH, K1 from IC50", "description": "as §1, §2"}, "adult sea lampreys": {"test_system": "adult sea lampreys", "details": "cited from earlier work; for plasma estradiol: adult female lampreys, injections; for ovulation / timing of ovulation: female lampreys; for gametogenesis: male and female sea lampreys, previous studies"}, "[3]": {"test_system": "adult male and female sea lamprey", "details": "compared to controls, cited from earlier work; for spawning behavior: experiment 2, females"}, "[4]": {"details": "pituitary of male sea lampreys, in words"}},
  "note": "Read-outs that look alike come from different tables or passages of the source. [ ]: non-standard residue; d: D form. pGlu = O=C1CC[C@@H](C(=O)O)N1",
  "data": [
    {"molecule": "CCNC(=O)[C@@H]1CCCN1C(=O)[C@H](CCCNC(=N)N)NC(=O)[C@H](CC(C)C)NC(=O)[C@@H](C)NC(=O)[C@H](Cc1ccc(O)cc1)NC(=O)[C@H](CO)NC(=O)[C@H](Cc1c[nH]c2ccccc12)NC(=O)[C@H](Cc1c[nH]cn1)NC(=O)[C@@H]1CCC(=O)N1", "note": "[[DAla^6, Pro^9Net]-m GnRH, [DAla^6, Pro^9Net]-mammalian GnRH]", "values": [
      {"measurement": "level at 504 h", "setting": "[1]; plasma, 75 ug GnRHa/lamprey, after 3 weeks, microspheres injected IM", "value": 2.9, "unit": "ng/mL"},
      {"measurement": "level at 168 h", "setting": "[1]; plasma, 75 ug GnRHa/lamprey, week 1, microspheres injected IM", "value": 4.2, "unit": "ng/mL"},
      {"measurement": "level at 336 h", "setting": "[1]; plasma, 75 ug GnRHa/lamprey, week 2, microspheres injected IM", "value": 3.1, "unit": "ng/mL"},
      {"measurement": "level at 168 h", "setting": "[1]; plasma, week 1, 2 mm implants injected IP", "value": 1.6, "unit": "ng/mL"},
      {"measurement": "level at 168 h", "setting": "[1]; plasma, week 1, microspheres injected IP, 75 ug GnRHa/lamprey", "value": 5, "unit": "ng/mL"},
      {"measurement": "share of lampreys with detectable plasma GnRHa", "setting": "[1]; week 1, injected IP, microspheres or implants", "value": "two-thirds"},
      {"measurement": "share of lampreys with detectable plasma GnRHa", "setting": "[1]; week 1, microspheres injected IM", "value": "Ninety percent"},
      {"measurement": "share of lampreys with detectable plasma GnRHa", "setting": "[1]; week 2, IP with microspheres and IP with implants", "value": "less than thirty percent"},
      {"measurement": "share of lampreys with detectable plasma GnRHa", "setting": "[1]; week 2, microspheres injected IM", "value": "ninety-two percent"},
      {"measurement": "Ki", "setting": "[2]", "value": 89, "unit": "nM"},
      {"measurement": "affinity for type-II GnRH binding site", "setting": "[2]; [4]", "value": "high affinity"},
      {"measurement": "Ki", "setting": "type-I GnRH-binding site", "value": 0.00311, "unit": "nM"},
      {"measurement": "affinity for type-I GnRH binding site", "setting": "type-I GnRH-binding site; [4]", "value": "high affinity"},
      {"measurement": "plasma estradiol", "setting": "adult sea lampreys", "value": "significantly elevated"},
      {"measurement": "ovulation / timing of ovulation", "setting": "adult sea lampreys", "value": "advanced ovulation by at least several weeks"}
    ]},
    {"molecule": "[Ac-3 Pro^1, 4-FD-Phe^3, D-Trp^3,6] mammalian GnRH", "values": [
      {"measurement": "plasma estradiol", "setting": "adult sea lampreys", "value": "no apparent effect"},
      {"measurement": "ovulation / timing of ovulation", "setting": "adult sea lampreys", "value": "no apparent effect"},
      {"measurement": "gametogenesis", "setting": "adult sea lampreys", "value": "decrease gametogenesis"}
    ]},
    {"molecule": "[D-Ala^6, Pro^9 Net lamprey GnRH] [lamprey GnRH agonist]", "values": [
      {"measurement": "spawning behavior", "setting": "[3]", "value": "inhibited"},
      {"measurement": "spawning activity", "setting": "[3]; experiment 2, males", "value": "stimulated earlier spawning activity"},
      {"measurement": "spawning activity", "setting": "[3]; experiment 3, males", "value": "inhibited spawning activity"}
    ]},
    {"molecule": "[D-Phe^2,6, Pro^3] lamprey GnRH", "values": [
      {"measurement": "ovulation / timing of ovulation", "setting": "adult sea lampreys", "value": "inhibited ovulation"},
      {"measurement": "gametogenesis", "setting": "adult sea lampreys", "value": "decrease gametogenesis"},
      {"measurement": "plasma progesterone levels", "setting": "adult sea lampreys; male sea lampreys", "value": "reduced"},
      {"measurement": "spermiation", "setting": "adult sea lampreys; male sea lampreys", "value": "inhibited spermiation"},
      {"measurement": "spawning behavior", "setting": "[3]", "value": "inhibited"},
      {"measurement": "spawning activity", "setting": "[3]; experiment 2, males", "value": "stimulated earlier spawning activity"},
      {"measurement": "spawning activity", "setting": "[3]; experiment 3, males", "value": "induced earlier spawning activity"}
    ]},
    {"molecule": "[D-Phe^2, Gly^6]-lGnRH-I [[D-Phe^2, Gly^6]-1GnRH-I]", "values": [
      {"measurement": "Ki", "setting": "[2]", "value": 5650, "unit": "nM"},
      {"measurement": "Ki", "setting": "type-I GnRH-binding site", "value": 1.37, "unit": "nM"}
    ]},
    {"molecule": "lamprey GnRH-I: native decapeptide pGlu His Tyr Ser Leu Glu Trp Lys Pro Gly-NH2 (Table 1) ([pGlu]HYSLEWKPG-NH2; SMILES CC(C)C[C@H](NC(=O)[C@H](CO)NC(=O)[C@H](Cc1ccc(O)cc1)NC(=O)[C@H](Cc1c[nH]cn1)NC(=O)[C@@H]1CCC(=O)N1)C(=O)N[C@@H](CCC(=O)O)C(=O)N[C@@H](Cc1c[nH]c2ccccc12)C(=O)N[C@@H](CCCCN)C(=O)N1CCC[C@H]1C(=O)NCC(N)=O)", "values": [
      {"measurement": "spermiation/ovulation", "setting": "adult sea lampreys; adult sea lampreys", "value": "induce"},
      {"measurement": "steroidogenesis", "setting": "adult sea lampreys; adult sea lampreys", "value": "induce"},
      {"measurement": "spawning activity", "setting": "[3]; experiment 3, males", "value": "delayed spawning activity"}
    ]}
  ]
}
